Structures can show the parent of a compound that is named as a salt.
Legend:
[1] = system: Pseudomonas aeruginosa ATCC 27853; assay: Standard EPI assay (MIC of levofloxacin or cefepime in absence and presence of the EPI); format: cell-based; conditions: P. aeruginosa ATCC 27853
Experimental: (§1) MIC assays were conducted in accordance with Clinical and Laboratory Standards Institute (CLSI) guidelines for broth microdilution.
(§2) The EPI assay for the purposes of these studies represents a MIC assay in which the MIC of the antibiotic against the bacteria is tested in the presence of an experimental efflux pump inhibitor (EPI). […] Using serial dilutions of the EPI, its enhancement of antibiotic activity was then evaluated. […] For the evaluation of the efficacy of an EPI against bacteria that were pre-exposed to an antibiotic, the inoculum of bacteria that used was developed from a bacterial culture isolated as a single colony following exposure at ½ the MIIC of the antibiotic (so as to induce efflux pump expression), was to be used in combination with the EPI.
In our standard EPI assay, the MIC of the test antibiotic is determined in the absence and presence of sub-inhibitory concentrations of the EPI. Initially, the sub-inhibitory concentration used was ½×MIC of the EPI. […] Similar methodology was employed to examine the synergy with Escherichia coli ATCC 25922 in the presence of varied concentrations of these EPIs using clarithromycin as the antibiotic.

[2] = system: P. aeruginosa [ATCC 27853]; assay: Mouse septicemia model of infection; format: in vivo, Swiss Webster female mice; conditions: experiment #512, cefepime, 10 mg/ml b.i.d., 250 ul
Experimental: A general method for the in vivo assessment of bacterial EPIs is complicated by the fact that that both the antibiotic and the EPI need to be present for synergy to be achieved. A general method was discovered that has proven to be effective in establishing the relative efficacy of bacterial EPIs in a mouse septicemia model. The bacterial EPI is administered initially intravenously to mice with septicemia, followed 5 minutes later by the intravenous administration or oral administration of the antibiotic. A second administration of the EPI is then administered subcutaneously after an additional 5 minutes to act as a booster, followed by the final administration of the antibiotic either intravenously or orally after the second administration of the EPI. […] In a few instances, a second regiment of both EPI and antibiotic as administered on day 1 was required after 24 hours to affect cures.
Determination of the in vivo efficacy of bacterial efflux pump inhibitors (EPIs) can be efficiently determined using a mouse septicemia model of infection. The systemic infection is initiated by a 500 ul intraperitoneal injection of an inoculum containing bacteria (such as P. aeruginosa [ATCC 27853]) at a concentration of approximately 5×10^5 cells in 5% mucin in Swiss Webster female mice. […]

P. aeruginosa ATCC 27853 = assay: Intrinsic MIC assay (CLSI broth microdilution); format: cell-based; conditions: Pseudomonas aeruginosa, ATCC27853
Experimental: as §1
The intrinsic MIC of the experimental EPIs was tested with the method described. The 2-fold serial dilution begins with 100 μg/mL of tested compound in the first column of the 96-well plates. The following Gram-negative bacterial strains were included in these assays: […]

[3] = system: P. aeruginosa ATCC 27853 pre-exposed to cefepime; assay: Pre-exposure bacterial EPI assay; format: cell-based, Pseudomonas aeruginosa
Experimental: as §2
The principle underlying this pre-exposure is that exposure of the bacteria to sub-inhibitory concentrations of the test antibiotic will induce expression of efflux pumps, if any, and may represent the scenario in vivo more accurately.

CC(C)C(N)CC[C@H](N)CNC(=O)c1cc2ccc(-c3ccc(F)cc3)cc2[nH]1 (stereo partly drawn) [Example 6, N-((2S)-2,5-diamino-6-methylheptyl)-6-(4-fluorophenyl)-1H-indole-2-carboxamide dihydrochloride]
MIC of levofloxacin in the presence of EPI ([1]; 6.25 μg/mL of the EPI): 0.063 µg/mL
reduction of the MIC of levofloxacin relative to the absence of EPI ([1]; 6.25 μg/mL of the EPI): 32 fold
MIC of cefepime in the presence of EPI ([1]; 12.5 μg/mL of the EPI): 1.0 µg/mL
decrease of the MIC of cefepime ([1]; 12.5 μg/mL of the EPI): 2 fold
% Survival (72 hr) Antibiotic + EPI ([2]; Example 6, 3.0 mg/ml b.i.d.): 100%
MIC (P. aeruginosa ATCC 27853): 25 µg/mL

CO/N=C(\C(=O)N[C@@H]1C(=O)N2C(C(=O)[O-])=C(C[N+]3(C)CCCC3)CS[C@H]12)c1csc(N)n1 [cefepime, reference compound]
MIC ([3]; Pseudomonas aeruginosa, ATCC27853, read-out: MIC of cefepime against P. aeruginosa pre-exposed to cefepime): 16 µg/mL
% Survival (72 hr) Antibiotic Only ([2]; mice infected with P. aeruginosa): 25%

C[C@H]1COc2c(N3CCN(C)CC3)c(F)cc3c(=O)c(C(=O)O)cn1c23 [levofloxacin, reference compound]
MIC ([1]; Pseudomonas aeruginosa, ATCC27853): 1 µg/mL

NCCC[C@@H](N)CNC(=O)c1cc2ccc(-c3ccc(F)cc3)cc2[nH]1 [Example 20, (R)-5-(6-(4-fluorophenyl)-1H-indole-2-carboxamido)pentane-1,4-diaminium chloride]
MIC of cefepime against cefepime-exposed P. aeruginosa in the presence of EPI ([3]; 6.25 μg/mL of the EPI): 0.5 µg/mL
reduction of the MIC of cefepime against cefepime-exposed P. aeruginosa ([3]; 6.25 μg/mL of the EPI): 8 fold

— US11993571B2, “Indole derivatives as efflux pump inhibitors” (RUTGERS, THE STATE UNIVERSITY OF NEW JERSEY, priority 2017, dated 2024)
